Test results: patent US20090281110A1, “Method of Treatment” (priority 2006, published 2009)

Columns and labels:
[1] = system: rat estrogen opposition model; experiment: Rat Model of Estrogen Opposition: Uterotrophic Model Assay; assay type: in vivo; details: 30 mg/kg/day
Protocol: A rat estrogen opposition model (Lundeen, S. G. et al., (2001) Rat Uterine Complement C3 Expression as a Model for Progesterone Receptor Modulators: Characterization of the New Progestin Trimegestone. J. Steroid Biochem. & Mol. biol. 78, 137-143, incorporated herein to the extent required to perform the present assay) was used to determine the efficacy of Example 2f at 30 mg/kg/day. This was a 48 hour rodent model involving a pre-treatment of compound followed by two days of combined estrogen (0.08 mg/kg) and compound treatment. At termination, uteri were removed from the rats weighed and sectioned for downstream biochemical analysis. Estrogen in this model was pro-inflammatory, inducing edema and infiltration of neutrophils into the endometrium causing a 4 to 5 fold increase in uterine weight. A significant effect of compound treatment on uterine weight was considered approximately a 25% decrease.

[2] = molecular target: T1, recombinant human IL-8 type α and β receptors (Homo sapiens, UniProt P25025); experiment: Receptor Binding Assay ([125I] IL-8 / GRO-α displacement, CHO membranes); details: receptor subtype (IL-8Rα or IL-8Rβ) not given
T1 sequence (P25025 1-360): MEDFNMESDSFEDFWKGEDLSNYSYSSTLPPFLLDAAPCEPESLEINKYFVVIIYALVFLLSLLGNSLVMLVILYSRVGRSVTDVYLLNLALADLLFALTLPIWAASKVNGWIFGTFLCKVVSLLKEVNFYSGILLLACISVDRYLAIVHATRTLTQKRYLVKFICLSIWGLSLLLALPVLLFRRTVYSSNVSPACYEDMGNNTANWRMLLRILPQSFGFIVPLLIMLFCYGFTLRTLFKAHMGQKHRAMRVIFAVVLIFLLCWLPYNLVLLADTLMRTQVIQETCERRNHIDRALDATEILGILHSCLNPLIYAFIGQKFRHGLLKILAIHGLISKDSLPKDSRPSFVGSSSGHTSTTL

| Compound | gene expression level of MMP-9 reduced compared to vehicle control and estrogen treated rats ([1]; rat uterus) [%] | gene expression of C3 reduced compared to estrogen only treatment ([1]; rat uterus) [%] | gene expression of cfos reduced compared to estrogen only treatment ([1]; rat uterus) [%] | reduced estrogen-induced uterine wet weight ([1]; rat, 48 hour model, estrogen 0.08 mg/kg) [%+/−5%] | IC50 [2] |
| --- | --- | --- | --- | --- | --- |
| CN1CCN(S(=O)(=O)c2c(Cl)ccc(NC(=O)Nc3cccc(F)c3Cl)c2O)CC1.Cc1ccc(S(=O)(=O)O)cc1 [Example 2f, N-[4-chloro-2-hydroxy-3-(4-methyl-piperazine-1-sulfonyl)-phenyl]-N′-(2-chloro-3-fluorophenyl)-urea p-toluenesulfonate] | 50 | 84 | 50 | 66 |  |
| Cl.O=C(Nc1ccc(Cl)c(S(=O)(=O)N2CCNCC2)c1O)Nc1cccc(F)c1Cl [Example 1, N-[4-chloro-2-hydroxy-3-(piperazine-1-sulfonyl)phenyl]-N′-(2-chloro-3-fluorophenyl)urea hydrochloride] |  |  |  |  | about 13 nM |
